These results are taken from patent publication US20230052740A1, “MODULATORS OF CIRCADIAN RHYTHMS AND USES THEREOF” (The Regents of the University of California, priority 2019, published 2023).

Experiment [1] concerns C3H/HeN mice. As to the kind of experiment: Re-entrainment of running wheel activity after 6 h advance of dark onset (jet-lag model). In kind it is in vivo. The following applies: 30 μg/mouse s.c., 3 days, WT; in words. The text has this: Male and female C3H/HeN (C3H) wild-type (WT), MT1 knockout (MT1KO), and MT2 knockout (MT2KO) mice (average 6.28 months) used in this study were raised in our breeding colony at University at Buffalo. […] Genotype was confirmed using tail samples at the end of each experiment and was verified periodically during the tenure of the colony. The strains of mice in our breeding colony were re-derived periodically by backcrossing with WT mice to reduce genetic drift.
Mice were group housed (3-5 per cage) with corncob bedding in polycarbonate translucent cages (30×19 cm) and maintained in a 14/10 light-dark (LD) cycle (Zeitgeber time 0 or ZT0 corresponds to Lights ON and ZT 14 to Lights OFF) in temperature and humidity controlled rooms with ad libitum access to food and water in the Laboratory Animal Facility at the University at Buffalo. Light levels were 200-300 lux at the level of the cage. Treatments and animal care performed in the dark were under a dim red safelight (15 watts, Kodak 1A filter) with illuminance of less than 3-5 lux (Benloucif, S. & Dubocovich, M. L. J Biol Rhythms 11, 113-125, (1996). All experimental procedures using mice were conducted in accordance with guidelines set forth by the National Institutes of Health and approved by the University at Buffalo Institutional Animal Care and Use Committee.
Circadian rhythm phase was determined for each mouse using the onset of running wheel activity defined as CT12 (Circadian Time 12). Running wheel activity was measured continuously via magnetic microswitches detecting wheel revolutions with a computer equipped with Clocklab data collection Software™ (Actimetrics: Wilmette, Ill.). All actigraphy data was visualized and analyzed using ClockLab™ and MATLAB™ software. All mice were individually housed in cages (33×15 cm) equipped with running wheels in light-tight ventilated cabinets with controlled temperature and LD cycles (Phenome Technologies: Skokie, Ill.). Male and female mice were housed in separate cabinets for all experiments.
Male and female C3H WT, MT1KO, and MT2KO mice (3 to 6 months) were maintained under a 12:12 LD cycle for at least 2 weeks prior experimental manipulations to allow stable entrainment to dark onset before advance of the LD cycle. Actigraphy data was recorded as described above and all experiment protocols performed as described (Dubocovich, M. L. et al., J Pineal Res 39, 113-120, 2005). On the first day of treatment, the dark onset was advanced 6 h. […] Post treatment, mice were given 14-20 days to re-entrain running wheel activity onsets to the new dark onset. Using exported running wheel activity onsets from actograms, onset hours advanced each day were determined by subtracting this value each day from the average onset of running wheel activity for 3 days prior to treatment for each mouse. Further, using the data from this calculation combined with visualization of actograms, the number of days to reach stable re-entrainment was determined for each mouse.
All statistical analyses as described in further detail for each experiment were conducted using GraphPad Prism 8™ (La Jolla, Calif.). All data sets were visualized for normality using QQ plots of predicted vs. actual residuals. Actigraphy data was generated for visualization blind to treatment prior to the quantification and statistical analysis stages. […] Data in FIGS. 4F & 4G were compared via a two-way ANOVA (3×2: genotype x treatment) with Tukey's post hoc analyses (P<0.05). […]

For experiment [2], the target named is T1, hMT1 (Homo sapiens, UniProt P48039). The experiment is described as follows: 2-[125I]-iodomelatonin competition binding, CHO cell membranes. The settings on record: CHO-hMT1; affinity shift by G protein inactivation.
Description: For receptor binding studies, '7447 was dissolved in 50% DMSO/50% ethanol for 13 mM stock solution, diluted 1/10 in 100% ethanol then 1/10 again in 50% ethanol/50% Tris-HCl buffer. Both '3384 and '4226 were dissolved in 100% ethanol for 13 mM stock solutions and then diluted 1/10 in 50% ethanol/50% Tris-HCl buffer. Further dilutions were done in Tris-HCl buffer.
Assays were incubated for 1 hour at 25° C. Bound radioligand was separated from freeby rapidvacuum filtration using glass microfiber filters (Whatman, Krackeler Scientific, Inc., Albany N.Y., USA) saturated in 0.5% polyethylenimine solution.
Affinity shifts or lack thereof with G protein inactivation indicate apparent efficacy (Lefkowitz, R. J. et al., J Biol Chem 251, 4686-4692, 1976) as ligands are classified as agonists (ΔpKi% MLT>20%), antagonists (ΔpKi% MLT<20%, >−20%), or inverse agonists (ΔpKi% MLT<−20%) accordingly.
Experiment [3] deals with T1, hMT1. The experiment is described as follows: cAMP assay (GloSensor), isoproterenol-stimulated cAMP in HEK cells. In kind it is cell-based. More on the design: expressed in transfected cells; host or cells: HEK-T (HEK-293 T) cells, co-transfected with GloSensor DNA. The settings on record: for Emax: read-out: MT1 % Emax (converted). Here is the method: HEK-293 T cells were maintained with complete Dulbecco's modified Eagle's medium (DMEM), which is composed of 10% fetal bovine serum (FBS), 2 mM L-glutamine, 100 units/ml penicillin G, 100 μg/ml streptomycin at 37° C. in the presence of 5% CO2
(§1) MT1 and MT2 receptors were tested using Promega's spilt luciferase based GboSensor cAMP biosensor technology. HEK-T cells were plated in 15 cm cell culture dish (at a density of 18 million cells) containing DMEM composed of 10% dialyzed FBS, 2 mM L-glutamine, 100 units/ml penicillin G, 100 μg/ml streptomycin for 4-6 hour. Then, cells were co-transfected with 8 μg of construct which encodes either MT1 or MT2 (de-Tangonized constructs) and […] of Glosensor DNA. Next day, transfected cells were seeded into poly-L-lysinecoated 384-well white clear bottom cell culture plates with complete DMEM with 1% dialized FBS at a density of 20,000 cells per well for another 24 h. The next day, cell medium were discarded and loaded with 20 μl of assay buffer (1×HBSS, 20 mM HEPES, pH 7.4, 0.1% BSA). To measure agonist activity of MT1 or MT2 receptor, 10 μl of test compound solution at 3× final concentration was added for 15 minutes followed by addition of 10 μl of luciferin/isoproterenol mixture (at a final concentration of 4 mM and 200 nM respectively) for another 15 mins for luminescence quantification. Then, plates were counted using SpectraMax luminescence reader (Molecular Device). Data were analyzed using GraphPad Prism 6.0.
In general terms: Changes in cAMP serve as a functional read-out for many G protein-coupled receptors.

The target in experiment [4] is T2, MT2 (Homo sapiens, UniProt P49286).
T2 sequence (P49286 1-362): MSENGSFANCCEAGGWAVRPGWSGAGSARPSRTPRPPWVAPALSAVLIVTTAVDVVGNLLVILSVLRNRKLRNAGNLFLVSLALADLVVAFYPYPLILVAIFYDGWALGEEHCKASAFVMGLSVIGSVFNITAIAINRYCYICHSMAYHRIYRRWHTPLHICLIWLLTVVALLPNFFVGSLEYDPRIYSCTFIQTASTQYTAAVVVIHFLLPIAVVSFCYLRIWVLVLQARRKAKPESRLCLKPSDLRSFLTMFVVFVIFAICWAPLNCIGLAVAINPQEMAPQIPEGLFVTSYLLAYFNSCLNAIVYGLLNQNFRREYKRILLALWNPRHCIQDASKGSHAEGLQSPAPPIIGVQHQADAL
The experiment is described as above. The following applies: for Emax: read-out: MT2 % Emax (converted); for EC50: read-out: EC50 at MT2; for MT2 pEC50: Table 2. More on the design: expressed in transfected cells; host or cells: HEK-T (HEK-293 T) cells, co-transfected with GloSensor DNA. In kind it is cell-based. Here is the method:
as §1, with “Next day, transfected cells were seeded into poly-L-lysinecoated 384-well white clear bottom cell culture plates with complete DMEM with 1% dialized FBS at a density of 20,000 cells per well for another 24 h.” left out

The target in experiment [5] is T2, MT2. As to the kind of experiment: Ligand bias quantification (G protein vs β-arrestin pathway, melatonin as reference). In kind it is cell-based. More on the design: expressed in transfected cells; host or cells: HEK-T cells (Gi/cAMP arm) and HTLA cells (β-arrestin Tango arm). The following applies: at MT2; bias factor 10^ΔΔLog(Emax/EC50).
[6] abbreviates: HEK293, Table 1, agonist, normalized to melatonin response.
[7] abbreviates: HEK293, Table 2, agonist, normalized to melatonin response.
Setting [8] is: HEK293, Table 1, cell marked Inverse (inverse agonist).

SMILES strings stand for the structures. Where two headings read alike, the source gives them in different places.

T1 sequence (P48039 whole entry): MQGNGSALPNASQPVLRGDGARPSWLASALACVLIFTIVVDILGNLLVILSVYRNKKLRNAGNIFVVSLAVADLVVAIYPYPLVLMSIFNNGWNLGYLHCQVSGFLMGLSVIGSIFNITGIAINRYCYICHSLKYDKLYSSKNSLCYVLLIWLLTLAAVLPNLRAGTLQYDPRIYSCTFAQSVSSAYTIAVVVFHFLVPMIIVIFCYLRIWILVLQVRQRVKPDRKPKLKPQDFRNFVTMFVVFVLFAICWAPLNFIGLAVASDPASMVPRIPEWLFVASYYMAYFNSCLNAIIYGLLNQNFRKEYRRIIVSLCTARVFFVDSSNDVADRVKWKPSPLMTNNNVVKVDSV

As for `COc1ccc2[nH]cc(CCNC(C)=O)c2c1` [Melatonin, reference compound], in experiment [1], the “rate of re-entrainment to the new light-dark cycle” value is on record as “accelerated re-entrainment”. Also, the “ΔpKi (pKi control − pKi inactive)” value in experiment [2] is on record as 1.19.

For `COc1ccc2c(c1)N(Cc1ccc(C#N)c(OC)c1)CCO2` [ZINC442850041], the values for the maximal effect (Emax) in experiment [3] (setting [6]) and in experiment [4] (setting [6]) were 99% and 97%, respectively. Further, the “MT1 pEC50” value in experiment [3] (Table 1, agonist) came out at 7.91 ± 0.04. In addition, the “selectivity for the MT2 receptor” value in experiment [4] was 25 fold. In experiment [4] (agonist), the EC50 came out at 0.47 nM. In experiment [5], the Bias amounted to 0.046.

Turning to `CCc1nc(SCc2cccc(C(=O)OC)c2)nc(O)c1C` [ZINC576887661], the Emax was 83% in experiment [3] (setting [6]) and 68% in experiment [4] (setting [6]). The “MT1 pEC50” value in experiment [3] (Table 1, agonist) came to 7.10 ± 0.19.

For `COCCN(Cc1ccc2c(c1)OCO2)c1nc(C(F)(F)F)ns1` [ZINC580731466], the Emax in experiment [3] (setting [6]) is 71%; in experiment [4] (setting [6]) it was 98%. Besides, the “MT1 pEC50” value in experiment [3] (Table 1, agonist) came out at 5.70 ± 0.13. In addition, the “selectivity for the MT2 receptor” value in experiment [4] is ~100 fold.

`COC(=O)c1cc(Cn2nc(C)c(N)c2C)c(C)s1` [ZINC602421874]: the Emax is 51% in experiment [3] (setting [7]) and 66% in experiment [4] (setting [7]). In addition, the “MT1 pEC50” value in experiment [3] (Table 2, agonist) is reported as 4.70 ± 0.11. In experiment [4] (agonist), the “MT2 pEC50” value came to 5.35 ± 0.10.

For the compound `CCOC(=O)c1nc(N(C)CC2CCCC2O)ccc1Br` (stereo not shown) [ZINC603324490], the Emax in experiment [3] (setting [8]) is 37%; in experiment [4] (setting [8]) it was 202%. The “MT1 pEC50” value in experiment [3] (Table 1, cell marked Inverse (inverse agonist)) is reported as 5.92 ± 0.29. For the same compound, the MT1 efficacy result in experiment [3] (in the concentration range of its MT2 inverse agonism (600 nM)) is “without substantial MT1 efficacy”. Besides, the EC50 in experiment [4] (inverse agonist) came out at 600 nM.

On to `COc1ccc2c(c1)N(Cc1ccn(C)c(=O)c1)CCO2` [ZINC608506688], for which the maximal response (Emax) in experiment [3] (setting [7]) is 99%; in experiment [4] (setting [7]) it was 89%. The “MT1 pEC50” value in experiment [3] (Table 2, agonist) is on record as 9.78 ± 0.13. Further, the “MT2 pEC50” value in experiment [4] (agonist) is 8.60 ± 0.10. The compound also yielded a Bias in experiment [5] of 8.2.

As for `COC(=O)c1csc(CSc2nnc(C3CC3)[nH]2)c1` [ZINC713465976], the Emax in experiment [3] (setting [7]) is 101%; in experiment [4] (setting [7]) it was 94%. In addition, the “MT1 pEC50” value in experiment [3] (Table 2, agonist) was 7.75 ± 0.22. Besides, the “MT2 pEC50” value in experiment [4] (agonist) was determined as 8.23 ± 0.11.

Take `COc1ccc(CNc2cccc(-n3nccn3)c2)cc1` [ZINC864032792]: the Emax in experiment [3] (setting [7]) is 57%; in experiment [4] (HEK293, Table 2, cell marked Inverse (inverse agonist)), 35%. Moreover, in experiment [3] (Table 2, agonist), the “MT1 pEC50” value is 7.49 ± 0.04. Besides, in experiment [4] (cell marked Inverse (inverse agonist)), the “MT2 pEC50” value was 6.66 ± 0.08.

One may read the Emax as the maximal effect, on the per cent scale that the assay sets. The EC50 is the concentration that produces a half-maximal response.
